Results reported in BindingDB's records for PubMed 15173008 (Wyeth Research).

Experiment: Inhibition of recombinant PDK1 (unknown origin) using peptide as substrate

## COc1cc2ncc(C#N)c(Nc3ccc(OCc4ccccn4)c(Cl)c3)c2cc1NC(=O)/C=C/CN(C)C
  IC50: > 5 µM
